Patent US20100093760A1, “METHODS FOR IDENTIFYING COMPOUNDS THAT MODULATE CELL SIGNALING AND METHODS EMPLOYING SUCH COMPOUNDS” (The General Hospital Corporation, priority 2006, published 2010)
“Also recorded” adds a separate entry of the source. Read-outs that look alike come from different tables or passages of the source.

Columns and labels:
zebrafish embryos [1] = type: in vivo; details: zebrafish, in vivo
Procedure: According to one example of the whole animal-based screening methods of the invention, 1-2 hour old zebrafish embryos are arrayed in the wells of 96-well plates, three embryos per well. A chemical library, which is comprised of tens of thousands of diverse small molecules, is then pin-transferred into the wells at a final concentration of ˜2 to 10 uM. Embryos are observed over the course of next 24-48 hours and scored under a dissecting microscope for phenotype consistent with loss of BMP signaling (dorsalized embryos, FIG. 1) or with the loss of nodal signaling (cyclopia, FIG. 2).
Small molecule screening in zebrafish was performed as previously described (Peterson et al., Nat. Biotechnol. 22:595-599, 2004) with several modifications. Pairs of wild-type zebrafish were mated, and newly-fertilized eggs were arrayed in triplicate in 96-well plates containing E3 buffer. At 4 hours post fertilization (hpf), compounds were added to wells at 5-10 μM. Embryos were incubated at 28.5° C., and gross morphology of embryos was examined at 12, 24, and 48 hpf for dorsalization or ventralization of embryonic axis, as previously described (Mullins et al., Development 123:81-93, 1996). In total, 7,570 compounds were screened, including synthetic screening compounds (Chembridge Corporation, 5,580 small molecules) and known bioactive compounds (Microsource Discovery Systems, 1,840 small molecules and Sigma-Aldrich, 150 small molecules). For follow up studies, Compound C/Dorsomorphin and Ara-A (adenine 9-β-D-arabinofurano-side) were purchased from Sigma (St. Louis, Mo.), and C75 was purchased from EMD Biosciences (San Diego, Calif.).

zebrafish embryos [2] = type: in vivo; details: for % Dorsalized / Dorsalized, number of embryos / Early lethality, number of embryos / Total survivors: treatment at 3 hpf; for phenotype: 8 ng of either morpholino alone, 24 hpf
[3] = test system: hepcidin (HAMP) and Id1 mRNA; test: Hepcidin and Id1 mRNA qRT-PCR in Hep3B cells; type: cell-based, human
Procedure: Quantitative RT-PCR was performed for mRNA encoding Id1 or human hepcidin (HAMP) as previously described (Babitt et al., Nat. Genet. 38:531-539, 2006; Yu et al., J. Biol. Chem. 280:24443-24450, 2005), and normalized to 18S ribosomal RNA (rRNA) or β-actin mRNA levels.

[4] = test system: BMP-mediated SMAD1/5/8 phosphorylation; test: Immunoblot of BMP-induced SMAD1/5/8 phosphorylation in PASMCs; type: cell-based, murine; details: PASMCs, noggin 100-200 ng/ml pretreatment 30 minutes
Procedure: Wild-type and BMPR-II-deficient PASMC were isolated as previously described (Yu et al., J. Biol. Chem. 280:24443-24450, 2005), and cultured in RPMI medium (Invitrogen) supplemented with 10% FBS. C2C12 cells (American Type Culture Collection, Manassas, Va.) were cultured in DMEM supplemented with glutamine and 10% FBS. HepG2 cells and Hep3B cells (ATCC) were cultured in Minimal Essential Alpha Medium with L-glutamine (α-MEM, Invitrogen) containing 10% FBS. For studies of SMAD activation in vitro, PASMC were incubated in 0.5% FCS RPMI for 24 hours, followed by preincubation with drug compounds, noggin, or vehicle for 30 minutes, followed the addition of recombinant BMPs 2, 4, 6, or 7, or TGF-β1 or Activin A (R&D Systems, Minneapolis, Minn.) for 30 minutes.
Cell extracts or tissues were mechanically homogenized in SDS-lysis buffer (62.5 mM Tris-HCl (pH 6.8), 2% SDS, 10% glycerol, 50 mM DTT, 0.01% bromophenol blue); separated by SDS-PAGE; immunoblotted with anti-phospho-SMAD1/5/8, anti-phospho-SMAD2 (Cell Signaling, Beverly, Mass.), or anti-α-tubulin (Upstate/Millipore, Billerica, Mass.) Abs; and visualized using ECL Plus (GE Healthcare, Piscataway, N.J.). Levels of immunoreactive proteins were quantitated by ImageQuant software on a Storm phosphorimager (GE Healthcare).
The statistical significance of compared measurements was measured using the student's two-tailed T-test or one-way ANOVA with Bonferroni correction. Hill plot analysis of Compound C/Dorsomorphin inhibition of SMAD1/5/8 phosphorylation was performed using GraFit software (Erithacus Software, Surrey, England).

MAPK p38 = test: Immunoblot of BMP4-mediated MAPK p38 phosphorylation in PASMCs; type: cell-based, murine; details: noggin 100-200 ng/ml pretreatment 30 minutes

C=C1C(=O)OC(CCCCCCCC)C1C(=O)O (stereo not shown) [Compound C75, reference compound]
dorsalization by structurally-unrelated inhibitors of AMPK activity (zebrafish embryos [1]): did not dorsalize zebrafish embryos | toxicity of structurally-unrelated inhibitors of AMPK activity (zebrafish embryos [1]): non-specific toxicity such as developmental delay and death | % Dorsalized (zebrafish embryos [2]; C75 4 μM): 0% | Dorsalized, number of embryos (zebrafish embryos [2]; C75 4 μM): 0 | Early lethality, number of embryos (zebrafish embryos [2]; C75 4 μM): 0 | Total survivors (zebrafish embryos [2]; C75 4 μM): 20 | % Dorsalized (zebrafish embryos [2]; C75 20 μM): 0% | Dorsalized, number of embryos (zebrafish embryos [2]; C75 20 μM): 0 | Early lethality, number of embryos (zebrafish embryos [2]; C75 20 μM): 0 | Total survivors (zebrafish embryos [2]; C75 20 μM): 40 | % Dorsalized (zebrafish embryos [2]; C75 40 μM): 0% | Dorsalized, number of embryos (zebrafish embryos [2]; C75 40 μM): 0 | Early lethality, number of embryos (zebrafish embryos [2]; C75 40 μM): 0 | Total survivors (zebrafish embryos [2]; C75 40 μM): 40 | % Dorsalized (zebrafish embryos [2]; C75 100 μM): 0% | Dorsalized, number of embryos (zebrafish embryos [2]; C75 100 μM): 0 | Early lethality, number of embryos (zebrafish embryos [2]; C75 100 μM): 20 | Total survivors (zebrafish embryos [2]; C75 100 μM): 0 | % Dorsalized (zebrafish embryos [2]; C75 200 μM): 0% | Dorsalized, number of embryos (zebrafish embryos [2]; C75 200 μM): 0 | Early lethality, number of embryos (zebrafish embryos [2]; C75 200 μM): 40 | Total survivors (zebrafish embryos [2]; C75 200 μM): 0 | % Dorsalized (zebrafish embryos [2]; C75 400 μM): 0% | Dorsalized, number of embryos (zebrafish embryos [2]; C75 400 μM): 0 | Early lethality, number of embryos (zebrafish embryos [2]; C75 400 μM): 40 | Total survivors (zebrafish embryos [2]; C75 400 μM): 0 | dorsalization phenotype (zebrafish embryos [2]; C75, any concentration tested (1-100 μg/ml), from 3 hpf): without evidence of dorsalization

NC(=O)c1ccc(-c2nc(-c3ccc4c(c3)OCO4)c(-c3ccccn3)[nH]2)cc1 [SB-431542, reference compound]
zebrafish embryo phenotype (zebrafish embryos [2]; known specific inhibitor of the TGF-β/activin/nodal branch): cyclopia, but not dorsalization

αA: splice-targeting morpholino against zebrafish AMPK α-subunit ortholog αA (CACCCTGGAAAGTT TTACCTTTGAC) (antisense CACCCTGGAAAGTTTTACCTTTGAC; all phosphorodiamidate morpholino (PMO)) [reference compound]
phenotype (zebrafish embryos [2]): did not exhibit any phenotype

αB: splice-targeting morpholino against zebrafish AMPK α-subunit ortholog αB (TAAATGAACA GACTTAACTCTTCAC) (antisense TAAATGAACAGACTTAACTCTTCAC; all phosphorodiamidate morpholino (PMO)) [reference compound]
phenotype (zebrafish embryos [2]): did not exhibit any phenotype

Nc1ncnc2c1ncn2[C@@H]1O[C@H](CO)[C@@H](O)[C@@H]1O [Ara-A, adenine 9-β-D-arabinofurano-side, reference compound]
effect on BMP4-induced hepcidin mRNA expression ([3]; Ara-A 250 μM 30 minutes before BMP4 20 ng/ml): did not impair; also recorded: did not significantly affect | lowering of baseline hepcidin expression ([3]; Ara-A 250 μM alone): 40% | dorsalization by structurally-unrelated inhibitors of AMPK activity (zebrafish embryos [1]): did not dorsalize zebrafish embryos | toxicity of structurally-unrelated inhibitors of AMPK activity (zebrafish embryos [1]): non-specific toxicity such as developmental delay and death

B1: noggin: soluble BMP antagonist; preferential inhibitor of BMP2 and BMP4 activity (protein, UniProt Q13253 28-232, looked up)
Noggin: QHYLHIRPAPSDNLPLVDLIEHPDPIFDPKEKDLNETLLRSLLGGHYDPGFMATSPPEDRPGGGGGAAGGAEDLAELDQLLRQRPSGAMPSEIKGLEFSEGLAQGKKQRLSKKLRRKLQMWLWSQTFCPVLYAWNDLGSRFWPRYVKVGSCFSKRSCSVPEGMVCKPSKSVHLTVLRWRCQRRGGQRCGWIPIQYPIISECKCSC
effect on BMP4-mediated phosphorylation of SMAD1/5/8 [4]: inhibited | effect on BMP4-mediated phosphorylation of MAPK p38 (MAPK p38): inhibited

B2: BMP4: recombinant bone morphogenetic protein ligand (R&D Systems) (protein, UniProt P12644 293-408, looked up)
Bone morphogenetic protein 4: SPKHHSQRARKKNKNCRRHSLYVDFSDVGWNDWIVAPPGYQAFYCHGDCPFPLADHLNSTNHAIVQTLVNSVNSSIPKACCVPTELSAISMLYLDEYDKVVLKNYQEMVVEGCGCR
increase in hepcidin mRNA ([3]; BMP4 20 ng/ml, four hours): 35 fold
